Test results taken from ChEMBL document CHEMBL1649297, “Mutations in ribosomal protein L3 are associated with oxazolidinone resistance in staphylococci of clinical origin” (2009).
Converted amounts (≈) assume the structure as drawn.

Columns and labels:
Type in all cases: functional
[1] = system: Staphylococcus aureus; test: Antibacterial activity against Staphylococcus aureus NARSA NRS127 harboring rplC T433 to T435 and L3 Ser145 deletion mutant by CLSI broth microdilution assay
[2] = system: Staphylococcus epidermidis; test: Antibacterial activity against Staphylococcus epidermidis 1653059 harboring rplC G469A/C470G, L3 Ala157Arg and 23S rRNA G2447T mutant by CLSI broth microdilution assay
[3] = system: Staphylococcus aureus; test: Antibacterial activity against methicillin-susceptible Staphylococcus aureus ATCC 29213 by CLSI broth microdilution assay
[4] = system: Staphylococcus epidermidis; test: Antibacterial activity against […] Staphylococcus epidermidis ATCC 12228 by CLSI broth microdilution assay

For `Cn1nnc(-c2ccc(-c3ccc(N4C[C@H](CO)OC4=O)cc3F)cn2)n1` [TEDIZOLID], the MIC [1] was 1 µg/mL (≈ 2.7 µM), the MIC [2] was 16 µg/mL (≈ 43.2 µM) and the MIC [3] was 0.5 µg/mL (≈ 1.35 µM). For the same compound, the MIC [4] was 0.25 µg/mL (≈ 0.675 µM).
`O=C(N[C@H](CO)[C@H](O)c1ccc([N+](=O)[O-])cc1)C(Cl)Cl` [CHLORAMPHENICOL] showed an MIC [1] of 8 µg/mL (≈ 24.8 µM), an MIC [2] of 2 µg/mL (≈ 6.19 µM) and an MIC [3] of 8 µg/mL (≈ 24.8 µM). The MIC [4] was 1 µg/mL (≈ 3.09 µM).
For `CC(=O)NC[C@H]1CN(c2ccc(N3CCOCC3)c(F)c2)C(=O)O1` [LINEZOLID], the MIC [1] was 8 µg/mL (≈ 23.7 µM), the MIC [2] was 256 µg/mL (≈ 759 µM) and the MIC [4] was 1 µg/mL (≈ 2.96 µM).
Compound `C=C[C@]1(C)C[C@@H](OC(=O)CSCCN(CC)CC)[C@]2(C)[C@H](C)CC[C@]3(CCC(=O)[C@H]32)[C@@H](C)[C@@H]1O` [TIAMULIN] has an MIC [1] of 4 µg/mL (≈ 8.1 µM), an MIC [2] of 8 µg/mL (≈ 16.2 µM) and an MIC [3] of 1 µg/mL (≈ 2.03 µM). The MIC [4] was 0.5 µg/mL (≈ 1.01 µM).
